Reference: ChEMBL document CHEMBL3046894, “Synthesis and Herbicidal Activity of Pyrimidinyl Salicylic and Thiosalicylic Acids” (J Pestic Sci, 1996)
Activity calls are given as the source filed them. The calls are words filed in the database; no cut-off is given here.

Key:
Gossypium hirsutum [1] = assay: Post-emergence phytotoxicity against Gossypium hirsutum (cotton) assessed as mortality per 10 acre; format: organism-based; details: in vivo
Ipomoea lacunosa [2] = assay: Post-emergence herbicidal activity against Ipomoea lacunosa assessed as mortality at 6.3 g a.i/10 a applied 11 days after germination as foliar spray; format: functional; details: 264 h
Abutilon theophrasti [3] = assay: Post-emergence herbicidal activity against Abutilon theophrasti (velvetleaf) assessed as mortality at 6.3 g a.i/10 a applied 11 days after germination as foliar spray; format: functional; details: 264 h
[4] = (§1) Pre-emergence phytotoxicity against Gossypium hirsutum (cotton) assessed as mortality at 6.3 g a.i/10 a; format: organism-based; details: in vivo, 6.3 g a.i/10 a, read-out: Activity
Gossypium hirsutum [5] = assay: Pre-emergence phytotoxicity against Gossypium hirsutum (cotton) assessed as mortality at 1.6 g a.i/10 a; format: organism-based; details: in vivo, other
Glycine max [6] = assay: Pre-emergence phytotoxicity against Glycine max (soybean) assessed as mortality at 1.6 g a.i/10 a; format: organism-based; details: in vivo, other
Glycine max [7] = assay: Pre-emergence phytotoxicity against Glycine max (soybean) assessed as mortality at 6.3 g a.i/10 a; format: organism-based; details: in vivo, other
Zea mays [8] = assay: Pre-emergence phytotoxicity against Zea mays (maize) assessed as mortality at 1.6 g a.i/10 a; format: organism-based; details: in vivo, other
Zea mays [9] = assay: Pre-emergence phytotoxicity against Zea mays (maize) assessed as mortality at 6.3 g a.i/10 a; format: organism-based; details: in vivo, other
[10] = Post-emergence phytotoxicity against Gossypium hirsutum (cotton) assessed as mortality at 1.6 g a.i/10 a applied 11 days after germination as foliar spray; format: organism-based; details: in vivo, 1.6 g a.i/10 a
[11] = Post-emergence phytotoxicity against Gossypium hirsutum (cotton) assessed as mortality at 6.3 g a.i/10 a applied 11 days after germination as foliar spray; format: organism-based; details: in vivo, 6.3 g a.i/10 a
Glycine max [12] = assay: Post-emergence phytotoxicity against Glycine max (soybean) assessed as mortality at 1.6 g a.i/10 a applied 11 days after germination as foliar spray; format: organism-based; details: in vivo, other, 264 h
Zea mays [13] = assay: Post-emergence phytotoxicity against Zea mays (maize) assessed as mortality at 1.6 g a.i/10 a applied 11 days after germination as foliar spray; format: organism-based; details: in vivo, other, 264 h
Cyperus iria [14] = assay: Pre-emergence herbicidal activity against Cyperus iria assessed as growth inhibition at 25 g a.i/10 a; format: functional, organism-based
Chenopodium album [15] = assay: Pre-emergence herbicidal activity against Chenopodium album assessed as growth inhibition at 25 g a.i/10 a; format: functional, organism-based
Amaranthus retroflexus [16] = assay: Pre-emergence herbicidal activity against Amaranthus retroflexus assessed as growth inhibition at 25 g a.i/10 a; format: functional, organism-based
Persicaria nodosa [17] = assay: Pre-emergence herbicidal activity against Persicaria nodosa assessed as growth inhibition at 25 g a.i/10 a; format: functional, organism-based
Digitaria sanguinalis [18] = assay: Pre-emergence herbicidal activity against Digitaria sanguinalis (hairy crabgrass) assessed as growth inhibition at 25 g a.i/10 a; format: functional, organism-based
Echinochloa crus-galli [19] = assay: Pre-emergence herbicidal activity against Echinochloa crus-galli (barnyard grass) assessed as growth inhibition at 25 g a.i/10 a; format: functional, organism-based
Cyperus iria [20] = assay: Post-emergence herbicidal activity against Cyperus iria assessed as growth inhibition at 25 g a.i/10 a applied 11 days after germination as foliar spray; format: functional, organism-based
Chenopodium album [21] = assay: Post-emergence herbicidal activity against Chenopodium album assessed as growth inhibition at 25 g a.i/10 a applied 11 days after germination as foliar spray; format: functional, organism-based
Amaranthus retroflexus [22] = assay: Post-emergence herbicidal activity against Amaranthus retroflexus assessed as growth inhibition at 25 g a.i/10 a applied 11 days after germination as foliar spray; format: functional, organism-based
Persicaria nodosa [23] = assay: Post-emergence herbicidal activity against Persicaria nodosa assessed as growth inhibition at 25 g a.i/10 a applied 11 days after germination as foliar spray; format: functional, organism-based
Digitaria sanguinalis [24] = assay: Post-emergence herbicidal activity against Digitaria sanguinalis (hairy crabgrass) assessed as growth inhibition at 25 g a.i/10 a applied 11 days after germination as foliar spray; format: functional, organism-based
Echinochloa crus-galli [25] = assay: Post-emergence herbicidal activity against Echinochloa crus-galli (barnyard grass) assessed as growth inhibition at 25 g a.i/10 a applied 11 days after germination as foliar spray; format: functional, organism-based
Ipomoea lacunosa [26] = assay: Pre-emergence herbicidal activity against Ipomoea lacunosa assessed as mortality per 10 acre; format: functional
Persicaria nodosa [27] = assay: Pre-emergence herbicidal activity against Persicaria nodosa assessed as mortality per 10 acre; format: functional
Amaranthus retroflexus [28] = assay: Pre-emergence herbicidal activity against Amaranthus retroflexus assessed as mortality per 10 acre; format: functional
Echinochloa crus-galli [29] = assay: Pre-emergence herbicidal activity against Echinochloa crus-galli (barnyard grass) assessed as mortality per 10 acre; format: functional
Gossypium hirsutum [30] = assay: Pre-emergence phytotoxicity against Gossypium hirsutum (cotton) assessed as mortality per 10 acre; format: organism-based; details: in vivo
Xanthium strumarium [31] = assay: Post-emergence herbicidal activity against Xanthium strumarium (cocklebur) assessed as mortality per 10 acre; format: functional
Ipomoea lacunosa [32] = assay: Post-emergence herbicidal activity against Ipomoea lacunosa assessed as mortality per 10 acre; format: functional
Persicaria nodosa [33] = assay: Post-emergence herbicidal activity against Persicaria nodosa assessed as mortality per 10 acre; format: functional
Amaranthus retroflexus [34] = assay: Post-emergence herbicidal activity against Amaranthus retroflexus assessed as mortality per 10 acre; format: functional
Echinochloa crus-galli [35] = assay: Post-emergence herbicidal activity against Echinochloa crus-galli (barnyard grass) assessed as mortality per 10 acre; format: functional
Xanthium strumarium [36] = assay: Pre-emergence herbicidal activity against Xanthium strumarium (cocklebur) assessed as mortality at 1.6 g a.i/10 a; format: functional
Ipomoea lacunosa [37] = assay: Pre-emergence herbicidal activity against Ipomoea lacunosa assessed as mortality at 1.6 g a.i/10 a; format: functional
Ipomoea lacunosa [38] = assay: Pre-emergence herbicidal activity against Ipomoea lacunosa assessed as mortality at 6.3 g a.i/10 a; format: functional
Xanthium strumarium [39] = assay: Pre-emergence herbicidal activity against Xanthium strumarium (cocklebur) assessed as mortality per 10 acre; format: functional
Echinochloa crus-galli [40] = assay: Pre-emergence herbicidal activity against Echinochloa crus-galli (barnyard grass) assessed as mortality at 6.3 g a.i/10 a; format: functional
Glycine max [41] = assay: Post-emergence phytotoxicity against Glycine max (soybean) assessed as mortality at 6.3 g a.i/10 a applied 11 days after germination as foliar spray; format: organism-based; details: in vivo, other, 264 h
Zea mays [42] = assay: Post-emergence phytotoxicity against Zea mays (maize) assessed as mortality at 6.3 g a.i/10 a applied 11 days after germination as foliar spray; format: organism-based; details: in vivo, other, 264 h
Echinochloa crus-galli [43] = assay: Post-emergence herbicidal activity against Echinochloa crus-galli (barnyard grass) assessed as mortality at 1.6 g a.i/10 a applied 11 days after germination as foliar spray; format: functional; details: 264 h
Abutilon theophrasti [44] = assay: Pre-emergence herbicidal activity against Abutilon theophrasti (velvetleaf) assessed as mortality at 1.6 g a.i/10 a; format: functional
Abutilon theophrasti [45] = assay: Pre-emergence herbicidal activity against Abutilon theophrasti (velvetleaf) assessed as mortality at 6.3 g a.i/10 a; format: functional
Gossypium hirsutum [46] = assay: as §1; format: organism-based; details: in vivo, other

Row | Compound | ED20 (Gossypium hirsutum [1]) [gAi] | mortality at 63 g/ha (Abutilon theophrasti [3]) [%] | mortality [4] [%] | Activity (Gossypium hirsutum [5]) [%] | Activity (Glycine max [6]) | Activity (Glycine max [7]) | Activity (Zea mays [8]) | Activity (Zea mays [9]) | mortality at 264 h [10] [%] | mortality at 264 h [11] [%] | Activity (Glycine max [12]) | Activity (Zea mays [13]) | ED90 (Ipomoea lacunosa [26]) [gAi] | ED90 (Persicaria nodosa [27]) | ED90 (Amaranthus retroflexus [28]) [gAi] | ED90 (Echinochloa crus-galli [29]) [gAi] | ED20 (Gossypium hirsutum [30]) [gAi] | ED90 (Xanthium strumarium [31]) | ED90 (Ipomoea lacunosa [32]) | ED90 (Persicaria nodosa [33]) [gAi] | also measured
1 | COc1cc(OC)nc(Sc2cccc(Cl)c2C(=O)O)n1 [PYRITHIOBAC] | 50 | > 90 | < 50 | < 50 | Non-toxic | Non-toxic | Toxic | Toxic | < 5 | < 5 | Toxic | Toxic | 25 | inactive | 1.5 | 25 | 50 | Active | inactive | 1.5 | mortality at 63 g/ha (Ipomoea lacunosa [2]): > 90%; growth inhibition (GI) (Cyperus iria [14]): Active; growth inhibition (GI) (Chenopodium album [15]): Active; growth inhibition (GI) (Amaranthus retroflexus [16]): Active; growth inhibition (GI) (Persicaria nodosa [17]): Active; growth inhibition (GI) (Digitaria sanguinalis [18]): Active; growth inhibition (GI) (Echinochloa crus-galli [19]): Active; growth inhibition (GI) (Cyperus iria [20]): Active; growth inhibition (GI) (Chenopodium album [21]): Active; growth inhibition (GI) (Amaranthus retroflexus [22]): Active; growth inhibition (GI) (Persicaria nodosa [23]): Active; growth inhibition (GI) (Digitaria sanguinalis [24]): Active; growth inhibition (GI) (Echinochloa crus-galli [25]): Active; ED90 (Amaranthus retroflexus [34]): 1.5 gAi; ED90 (Echinochloa crus-galli [35]): 25 gAi; Activity (Xanthium strumarium [36]): <50%; Activity (Ipomoea lacunosa [37]): <50%; Activity (Ipomoea lacunosa [38]): <50%; ED90 (Xanthium strumarium [39]): 25 gAi
2 | COc1cc(OC)nc(Sc2cccc(C(F)(F)F)c2C(=O)O)n1 |  |  | < 50 | < 50 | Non-toxic | Toxic | Non-toxic | Toxic | < 5 | < 5 | Toxic | Toxic |  |  |  |  |  |  |  |  | Activity (Echinochloa crus-galli [40]): >90%; Activity (Glycine max [41]): Toxic; Activity (Zea mays [42]): Toxic; mortality at 16 g/ha (Echinochloa crus-galli [43]): < 5%; Activity (Ipomoea lacunosa [37]): <50%; Activity (Ipomoea lacunosa [38]): <50%; Activity (Abutilon theophrasti [44]): <50%; Activity (Abutilon theophrasti [45]): <50%
3 | COc1cc(OC)nc(Sc2cccc(Br)c2C(=O)O)n1 | 50 | > 90 |  | < 50 | Toxic | Toxic | Toxic | Toxic | < 5 | < 5 | Toxic | Toxic | 25 | inactive | 1.5 | 25 | 50 | Active | Active | 1.5 | Activity (Gossypium hirsutum [46]): Non-toxic; Activity (Glycine max [41]): Toxic; ED90 (Amaranthus retroflexus [34]): 1.5 gAi; ED90 (Echinochloa crus-galli [35]): 25 gAi; ED90 (Xanthium strumarium [39]): 25 gAi
